This experiment deals with Human immunodeficiency virus type 1 integrase (Human immunodeficiency virus 1, UniProt Q7ZJM1). Put plainly: Inhibition of Human immunodeficiency virus 1 integrase 3'-processing activity expressed in Escherichia coli using 21-mer DNA and Mg2+ after 2 hrs by polyacrylamide gel electrophoresis.
Chain of Human immunodeficiency virus type 1 integrase (Q7ZJM1 whole entry): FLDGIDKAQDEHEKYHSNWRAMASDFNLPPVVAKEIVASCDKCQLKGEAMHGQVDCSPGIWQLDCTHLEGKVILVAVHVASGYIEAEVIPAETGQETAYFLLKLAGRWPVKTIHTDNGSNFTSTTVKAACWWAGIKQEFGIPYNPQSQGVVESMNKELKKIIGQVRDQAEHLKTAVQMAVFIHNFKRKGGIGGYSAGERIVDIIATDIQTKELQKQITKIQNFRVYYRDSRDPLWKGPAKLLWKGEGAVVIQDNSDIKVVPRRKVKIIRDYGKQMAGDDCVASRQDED
In the case of `Cc1cn([C@H]2C[C@H](OP(=O)(O)OCCCOP(=O)(O)OCCCOP(=O)(O)OCCCOP(=O)(O)OCCCOP(=O)(O)OCCCOP(=O)(O)OCCCOP(=O)(O)OC[C@H]3O[C@@H](n4cc(C)c(=O)[nH]c4=O)C[C@@H]3O)[C@@H](COP(=O)(O)O[C@H]3C[C@H](n4cc(C)c(=O)[nH]c4=O)O[C@@H]3COP(=O)(O)O[C@H]3C[C@H](n4cnc5c(=O)[nH]c(N)nc54)O[C@@H]3COP(=O)(O)O[C@H]3C[C@H](n4cnc5c(=O)[nH]c(N)nc54)O[C@@H]3COP(=O)(O)OCCCCCCNC(=O)c3cc(Cl)c(C(=O)O)c(-c4c5cc(Cl)c(=O)c(Cl)c-5oc5c(Cl)c(O)c(Cl)cc45)c3Cl)O2)c(=O)[nH]c1=O`, it took 310 nM to reach half-maximal inhibition (IC50).
Take `CO[C@@H]1[C@H](OP(=O)(O)OC[C@H]2O[C@@H](n3ccc(=O)[nH]c3=O)[C@H](OC)[C@@H]2OP(=O)(O)OC[C@H]2O[C@@H](n3ccc(=O)[nH]c3=O)[C@H](OC)[C@@H]2OP(=O)(O)OC[C@H]2O[C@@H](n3cnc4c(=O)[nH]c(N)nc43)[C@H](OC)[C@@H]2OP(=O)(O)OC[C@H]2O[C@@H](n3ccc(=O)[nH]c3=O)[C@H](OC)[C@@H]2OP(=O)(O)OC[C@H]2O[C@@H](n3cnc4c(=O)[nH]c(N)nc43)[C@H](OC)[C@@H]2OP(=O)(O)OC[C@H]2O[C@@H](n3ccc(=O)[nH]c3=O)[C@H](OC)[C@@H]2OP(=O)(O)OCCCCCCNC(=S)Nc2ccc(-c3c4cc(Br)c(=O)c(Br)c-4oc4c(Br)c(O)c(Br)cc34)c(C(=O)O)c2)[C@@H](COP(=O)(O)O[C@H]2[C@@H](OC)[C@H](n3ccc(=O)[nH]c3=O)O[C@@H]2COP(=O)(O)O[C@H]2[C@@H](OC)[C@H](n3ccc(=O)[nH]c3=O)O[C@@H]2COP(=O)(O)O[C@H]2[C@@H](OC)[C@H](n3cnc4c(=O)[nH]c(N)nc43)O[C@@H]2COP(=O)(O)O[C@H]2[C@@H](OC)[C@H](n3cnc4c(=O)[nH]c(N)nc43)O[C@@H]2CO)O[C@H]1n1ccc(=O)[nH]c1=O`: 48 nM corresponded to half-maximal inhibition (IC50).
In the case of `CO[C@@H]1[C@H](O)[C@@H](COP(=O)(O)O[C@H]2[C@@H](OC)[C@H](n3cnc4c(=O)[nH]c(N)nc43)O[C@@H]2COP(=O)(O)O[C@H]2[C@@H](OC)[C@H](n3ccc(=O)[nH]c3=O)O[C@@H]2COP(=O)(O)O[C@H]2[C@@H](OC)[C@H](n3cnc4c(=O)[nH]c(N)nc43)O[C@@H]2COP(=O)(O)O[C@H]2[C@@H](OC)[C@H](n3ccc(=O)[nH]c3=O)O[C@@H]2COP(=O)(O)O[C@H]2[C@@H](OC)[C@H](n3ccc(=O)[nH]c3=O)O[C@@H]2COP(=O)(O)O[C@H]2[C@@H](OC)[C@H](n3ccc(=O)[nH]c3=O)O[C@@H]2COP(=O)(O)O[C@H]2[C@@H](OC)[C@H](n3ccc(=O)[nH]c3=O)O[C@@H]2COP(=O)(O)O[C@H]2[C@@H](OC)[C@H](n3ccc(=O)[nH]c3=O)O[C@@H]2COP(=O)(O)O[C@H]2[C@@H](OC)[C@H](n3cnc4c(=O)[nH]c(N)nc43)O[C@@H]2COP(=O)(O)O[C@H]2[C@@H](OC)[C@H](n3cnc4c(=O)[nH]c(N)nc43)O[C@@H]2COP(=O)(O)OCCCCCCNC(=O)c2cc(Cl)c(C(=O)O)c(-c3c4cc(Cl)c(=O)c(Cl)c-4oc4c(Cl)c(O)c(Cl)cc34)c2Cl)O[C@H]1n1ccc(=O)[nH]c1=O` it was 52 nM.
